The test deals with Beta-secretase 1 (Homo sapiens, UniProt P56817). In words: Inhibition of human recombinant BACE1 expressed in Escherichia coli BL21(DE3) using Biotin-XSEVNLDAEFRHDSGC-Eu as substrate after 3 hrs by HTRF assay.
Sequence of Beta-secretase 1 (P56817 whole entry): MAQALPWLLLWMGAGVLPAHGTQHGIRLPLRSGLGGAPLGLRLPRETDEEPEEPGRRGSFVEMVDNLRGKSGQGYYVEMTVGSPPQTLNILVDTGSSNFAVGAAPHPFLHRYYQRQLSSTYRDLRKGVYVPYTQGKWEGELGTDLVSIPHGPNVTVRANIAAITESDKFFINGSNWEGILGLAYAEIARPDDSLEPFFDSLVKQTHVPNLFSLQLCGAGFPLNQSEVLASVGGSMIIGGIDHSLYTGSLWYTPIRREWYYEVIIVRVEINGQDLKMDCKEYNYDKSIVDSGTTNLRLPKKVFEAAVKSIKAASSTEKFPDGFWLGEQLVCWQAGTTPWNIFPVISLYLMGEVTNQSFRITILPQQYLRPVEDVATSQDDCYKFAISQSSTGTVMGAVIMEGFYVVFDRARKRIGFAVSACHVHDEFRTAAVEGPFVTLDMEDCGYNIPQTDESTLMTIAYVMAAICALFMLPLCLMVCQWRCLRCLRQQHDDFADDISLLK

As for `Cn1c(N)nc(CCc2cccc(CCc3ccccc3)c2)cc1=O`, the IC50 was more than 200 µM.

`Cn1c(N)nc([C@H]2C[C@H]2c2cccc(Cc3ccccc3)c2)cc1=O`: the IC50 was more than 200 µM. Next, `Cc1ccccc1CCc1cccc([C@@H]2C[C@@H]2c2cc(=O)n(C)c(N)n2)c1`: 120 µM. Next, `Cc1cccc(CCc2cccc([C@@H]3C[C@@H]3c3cc(=O)n(C)c(N)n3)c2)c1`: more than 200 µM; `CSc1cccc(-c2cccc([C@@H]3C[C@@H]3c3cc(=O)n(C)c(N)n3)c2)c1`: 47.5 µM; `CCOc1cccc(-c2cccc([C@@H]3C[C@@H]3c3cc(=O)n(C)c(N)n3)c2)c1`: 39.4 µM.

On to `Cn1c(N)nc([C@H]2C[C@H]2c2cccc(-c3cccc(F)c3)c2)cc1=O`, for which the IC50 was found to be 72.4 µM. Next, `Cc1cccc(-c2cccc([C@@H]3C[C@@H]3c3cc(=O)n(C)c(N)n3)c2)c1`: 74.9 µM; `Cn1c(N)nc([C@H]2C[C@H]2c2cccc(CCCc3ccccc3)c2)cc1=O`: more than 200 µM. For the molecule `Cn1c(N)nc([C@H]2C[C@H]2c2cccc(-c3cccc(N)c3)c2)cc1=O`, the IC50 is more than 200 µM.

For the molecule `Cn1c(N)nc([C@H]2C[C@H]2c2cccc(/C=C/c3ccccc3)c2)cc1=O`, the half-maximal inhibitory concentration (IC50) is more than 200 µM.

Regarding `COc1ccc(-c2cccc([C@@H]3C[C@@H]3c3cc(=O)n(C)c(N)n3)c2)cc1`, the IC50 is 30.8 µM. In the case of `Cn1c(N)nc([C@H]2C[C@H]2c2cccc(C#Cc3ccccc3)c2)cc1=O` it was more than 200 µM; in that of `COc1cncc(-c2cccc([C@@H]3C[C@@H]3c3cc(=O)n(C)c(N)n3)c2)n1`, 84.9 µM; in that of `Cc1ccc(CCc2cccc([C@@H]3C[C@@H]3c3cc(=O)n(C)c(N)n3)c2)cc1`, more than 200 µM.

Regarding `CN(C)c1cccc(-c2cccc([C@@H]3C[C@@H]3c3cc(=O)n(C)c(N)n3)c2)c1`, the IC50 is more than 200 µM. Next, `Cn1c(N)nc([C@H]2C[C@H]2c2cccc(CCc3ccccc3)c2)cc1=O`: 22.2 µM. Next, `COc1cccc(CCc2cccc([C@@H]3C[C@@H]3c3cc(=O)n(C)c(N)n3)c2)c1`: 100 µM.
